Results on 7 cell lines are retold here after the supplement of paper PMC10307832.

Assay in all cases: relative viability (nuclei count vs DMSO), 5 days (fraction); higher = more cells survive
Compound in one assay: C1=CC(=CC=C1NC(=S)NNC2=C(C=C(C=C2[N+](=O)[O-])C(F)(F)F)[N+](=O)[O-])F [Kobe2602]
The method, boiled down:
(§1)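 Lung cancer cell lines in 1536-well plates were kept overnight at 37 °C, then pinned with five library-drug doses (not always all listed) spaced by √10 on vehicle-anchored plates. After 5 days without medium change, cells were fixed, permeabilised and Hoechst-stained in one step, imaged at 4×, and nuclei were counted with MetaXpress. Viability is treated-well nuclei divided by vehicle-well nuclei, taken as the median over plates. Plates passed only with control CV below 25% and at least one doubling.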

Compound in the next assay: COc1cc2nccc(Oc3ccc(NC(=O)C4(C(=O)Nc5ccc(F)cc5)CC4)cc3)c2cc1OC [Cabozantinib]
In outline: as §1

Compound in the next assay: O[C@@H](COc1cccc2ncccc12)CN1CCN([C@@H]2c3ccccc3[C@@H]3[C@H](c4ccccc42)C3(F)F)CC1 [Zosuquidar]
The method, boiled down: as §1

Compound in the assay “Cabozantinib + Dasatinib”: COc1cc2nccc(Oc3ccc(NC(=O)C4(C(=O)Nc5ccc(F)cc5)CC4)cc3)c2cc1OC [Cabozantinib] + Cc1nc(Nc2ncc(C(=O)Nc3c(C)cccc3Cl)s2)cc(N2CCN(CCO)CC2)n1 [Dasatinib] (partner 0.075 µM)
In outline: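 Values are medians from duplicate plates. Each reflects relative viability, defined as the nuclei count of treated wells over that of vehicle wells. Lung cancer cell lines in 1536-well plates were pin-tool dosed one day after seeding with one drug alone or with a fixed anchor-drug dose plus five library-drug doses (not always all listed) in √10 steps, then fixed, stained and imaged at 4× after 5 days.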

For NCI-H647, the relative viability with Kobe2602 (0.2 µM) came to 0.938; with Kobe2602 (0.6325 µM) it was 1.09; in the assay with Kobe2602 (2 µM), 0.936; in the assay with Kobe2602 (6.325 µM), 0.91; in the assay with Kobe2602 (20 µM), 0.948; in the assay with Cabozantinib (0.02 µM), 0.994. In addition, the relative viability came out at 1.14 with Cabozantinib (0.06325 µM); 0.986 with Cabozantinib (0.2 µM); 0.92 in the assay with Cabozantinib (0.6325 µM); 0.881 with Cabozantinib (2 µM); 0.908 with Zosuquidar (0.01 µM); 0.951 with Zosuquidar (0.03162 µM). In addition, the relative viability in the assay with Zosuquidar (0.1 µM) amounted to 0.918; with Zosuquidar (0.3162 µM) it was 1.13; in the assay with Zosuquidar (1 µM) it was 0.884; with Cabozantinib + Dasatinib (first compound 0.02 µM), 0.281; with Cabozantinib + Dasatinib (first compound 0.06325 µM), 0.17; with Cabozantinib + Dasatinib (first compound 0.2 µM), 0.201. Also, the relative viability with Cabozantinib + Dasatinib (first compound 0.6325 µM) amounted to 0.147; with Cabozantinib + Dasatinib (first compound 2 µM) it was 0.136.

NCI-H650: the relative viability with Kobe2602 (0.2 µM) amounted to 0.913; in the assay with Kobe2602 (0.6325 µM), 1.11; with Kobe2602 (2 µM) it was 0.885; in the assay with Kobe2602 (6.325 µM), 0.986; with Kobe2602 (20 µM) it was 0.905; with Cabozantinib (0.02 µM), 0.745. In addition, the relative viability amounted to 0.966 in the assay with Cabozantinib (0.06325 µM); 1.12 with Cabozantinib (0.2 µM); 0.86 with Cabozantinib (0.6325 µM); 0.899 in the assay with Cabozantinib (2 µM); 1.02 with Zosuquidar (0.01 µM); 0.836 in the assay with Zosuquidar (0.03162 µM). In addition, the relative viability with Zosuquidar (0.1 µM) worked out at 0.807; with Zosuquidar (0.3162 µM), 1.12; with Zosuquidar (1 µM) it was 0.851; with Cabozantinib + Dasatinib (first compound 0.06325 µM), 0.504; in the assay with Cabozantinib + Dasatinib (first compound 0.2 µM) it was 0.452; with Cabozantinib + Dasatinib (first compound 0.6325 µM), 0.49. Further, the relative viability with Cabozantinib + Dasatinib (first compound 2 µM) was found to be 0.445.

Take NCI-H661: the relative viability with Kobe2602 (0.2 µM) worked out at 1; in the assay with Kobe2602 (0.6325 µM), 0.952; with Kobe2602 (2 µM), 0.983; in the assay with Kobe2602 (6.325 µM), 0.991; with Kobe2602 (20 µM), 1.02; with Cabozantinib (0.02 µM) it was 0.986. Moreover, the relative viability with Cabozantinib (0.06325 µM) turned out to be 1.03; with Cabozantinib (0.2 µM) it was 1.01; with Cabozantinib (0.6325 µM) it was 1.02; with Cabozantinib (2 µM), 1.06; in the assay with Zosuquidar (0.01 µM), 0.945; in the assay with Zosuquidar (0.03162 µM) it was 0.976. The relative viability in the assay with Zosuquidar (0.1 µM) is 0.91; in the assay with Zosuquidar (0.3162 µM) it was 1.03; with Zosuquidar (1 µM), 0.982; with Cabozantinib + Dasatinib (first compound 0.02 µM), 0.732; with Cabozantinib + Dasatinib (first compound 0.06325 µM) it was 0.838; in the assay with Cabozantinib + Dasatinib (first compound 0.2 µM), 0.724. For the same cell line, the figures for the relative viability in the assay with Cabozantinib + Dasatinib (first compound 0.6325 µM) and with Cabozantinib + Dasatinib (first compound 2 µM) were 0.767 and 0.772, respectively.

In the case of NCI-H727, the relative viability with Kobe2602 (0.2 µM) came out at 1.07; with Kobe2602 (0.6325 µM) it was 0.952; with Kobe2602 (2 µM) it was 0.878; in the assay with Kobe2602 (6.325 µM) it was 0.85; in the assay with Kobe2602 (20 µM), 0.938; with Cabozantinib (0.02 µM), 0.852. The relative viability was found to be 1.05 with Cabozantinib (0.06325 µM); 0.808 in the assay with Cabozantinib (0.2 µM); 0.912 in the assay with Cabozantinib (0.6325 µM); 0.961 with Cabozantinib (2 µM); 0.971 with Zosuquidar (0.01 µM); 1.06 with Zosuquidar (0.03162 µM). Moreover, the relative viability with Zosuquidar (0.1 µM) was 0.8; in the assay with Zosuquidar (0.3162 µM), 1.13; in the assay with Zosuquidar (1 µM), 1.01; in the assay with Cabozantinib + Dasatinib (first compound 0.02 µM), 0.298; with Cabozantinib + Dasatinib (first compound 0.06325 µM), 0.455; in the assay with Cabozantinib + Dasatinib (first compound 0.2 µM), 0.284. Besides, the results for the relative viability in the assay with Cabozantinib + Dasatinib (first compound 0.6325 µM) and with Cabozantinib + Dasatinib (first compound 2 µM) were 0.348 and 0.298, respectively.

Consider NCI-H838, for which the relative viability is 0.932 with Kobe2602 (0.2 µM); 1.03 with Kobe2602 (0.6325 µM); 0.937 with Kobe2602 (2 µM); 0.955 in the assay with Kobe2602 (6.325 µM); 0.96 with Kobe2602 (20 µM); 0.93 in the assay with Cabozantinib (0.02 µM). Also, the relative viability stood at 1 with Cabozantinib (0.06325 µM); 0.966 with Cabozantinib (0.2 µM); 0.891 with Cabozantinib (0.6325 µM); 0.854 in the assay with Cabozantinib (2 µM); 0.972 in the assay with Zosuquidar (0.01 µM); 0.836 with Zosuquidar (0.03162 µM). The relative viability with Zosuquidar (0.1 µM) was found to be 0.9; in the assay with Zosuquidar (0.3162 µM), 1.04; with Zosuquidar (1 µM), 1.01; with Cabozantinib + Dasatinib (first compound 0.02 µM) it was 0.251; with Cabozantinib + Dasatinib (first compound 0.06325 µM), 0.309; with Cabozantinib + Dasatinib (first compound 0.2 µM) it was 0.312. In addition, the relative viability with Cabozantinib + Dasatinib (first compound 0.6325 µM) is 0.338; with Cabozantinib + Dasatinib (first compound 2 µM), 0.281.

As to NCI-H1355, the relative viability was determined as 0.914 in the assay with Kobe2602 (0.2 µM); 1.01 with Kobe2602 (0.6325 µM); 0.911 in the assay with Kobe2602 (2 µM); 0.965 with Kobe2602 (6.325 µM); 0.959 with Kobe2602 (20 µM); 0.954 in the assay with Cabozantinib (0.02 µM). Besides, the relative viability is 1.11 with Cabozantinib (0.06325 µM); 0.977 with Cabozantinib (0.2 µM); 0.96 with Cabozantinib (0.6325 µM); 0.961 with Cabozantinib (2 µM); 0.99 with Zosuquidar (0.01 µM); 0.967 in the assay with Zosuquidar (0.03162 µM). Besides, the relative viability turned out to be 0.843 with Zosuquidar (0.1 µM); 1.06 in the assay with Zosuquidar (0.3162 µM); 0.973 in the assay with Zosuquidar (1 µM); 0.563 in the assay with Cabozantinib + Dasatinib (first compound 0.02 µM); 0.78 with Cabozantinib + Dasatinib (first compound 0.06325 µM); 0.73 in the assay with Cabozantinib + Dasatinib (first compound 0.2 µM). For the same cell line, the relative viability with Cabozantinib + Dasatinib (first compound 0.6325 µM) was 0.678; in the assay with Cabozantinib + Dasatinib (first compound 2 µM), 0.734.

Turning to NCI-H1395, the relative viability worked out at 0.978 with Kobe2602 (0.2 µM); 1.22 with Kobe2602 (0.6325 µM); 0.893 in the assay with Kobe2602 (2 µM); 1.06 with Kobe2602 (6.325 µM); 0.976 with Kobe2602 (20 µM); 0.797 in the assay with Cabozantinib (0.02 µM). The relative viability with Cabozantinib (0.06325 µM) came to 1.23; with Cabozantinib (0.2 µM) it was 1.01; with Cabozantinib (0.6325 µM), 0.938; with Cabozantinib (2 µM), 0.815; with Zosuquidar (0.01 µM), 0.914; in the assay with Zosuquidar (0.03162 µM), 0.869. Moreover, the relative viability with Zosuquidar (0.1 µM) amounted to 0.717; with Zosuquidar (0.3162 µM), 1.18; in the assay with Zosuquidar (1 µM), 0.891; with Cabozantinib + Dasatinib (first compound 0.02 µM), 0.363; with Cabozantinib + Dasatinib (first compound 0.06325 µM) it was 0.473; with Cabozantinib + Dasatinib (first compound 0.2 µM), 0.423. Moreover, the relative viability was determined as 0.458 with Cabozantinib + Dasatinib (first compound 0.6325 µM) and 0.37 in the assay with Cabozantinib + Dasatinib (first compound 2 µM).
